From patent US6013623A, “Use of heme-peptides to prevent or retard disease associated with oxidative stress” (The Trustees of Columbia University in the City of New York, priority 1997, dated 2000)
No end group written: not given here.

Legend:
[1] = tested on: lens epithelial cell culture; details: range required for effective activity; cited from earlier work
[2] = Degradation of H2O2 by microperoxidase (ferroammonium sulfate/thiocyanate H2O2 assay); type: biochemical
Method: (FIG. 1A) Effect of cofactors on μPx-11 degradation of H2 O2. 300 μM hydrogen peroxide (H2 O2) was incubated with μPx-11 in 50 mM phosphate buffer, pH 7.0 at 25° C. in 1 ml. At indicated times, 50 μl aliquots were removed for H2 O2 assay as described in the Materials and Methods section. 50 mM phosphate buffer, pH 7.0 buffer+500 μM NADPH, buffer+1 mM ascorbate (Asc), buffer+3 μM (μPx-11), prior solution+500 μM NADPH, as the previous solution but with 1 mM Asc rather than NADPH. 20 μM μPx-11 in 50 mM phosphate buffer pH 7.0. The results represent the average±S.D. of 3 experiments in most cases.
(FIG. 1B) Stability of μPx-11 as measured by ability to degrade H2 O2. 300 μM H2 O2 in 2 ml of 50 mM phosphate buffer, pH. […] The levels of certain components (H2 O2, NADPH or Asc) were brought back to estimated starting concentrations based on prior experiments and the H2 O2 decay again measured. […]
(FIG. 1C) Concentration dependence of μPx-11 in the presence of Asc. […] The data is expressed as nmoles H2 O2 degraded per ml per minute per nmole μPx-11 in 1 ml. The initial H2 O2 degradation rate measured in the first minute is given. […]
H2 O2 was assayed by the method of Hildebrandt et al. (1978), as modified by Spector et al. (1993a) and is based on the oxidation of ferroammonium sulfate in the presence of potassium thiocyanate. […] Hydroxyl radical was determined as previously described (Spector et al., 1993a). […]

Compound | toxicity [1] | effect of H2O2 on peroxidase ([2]; absence of Asc) | ability to degrade H2O2 compared with μPx-11 ([2]; presence of 1 mM Asc)
CN(C)Cc1ccccc1[Se][Se]c1ccccc1CN(C)C [2,2'diselenobis (N,N dimethylamino)methyl benzene] | toxic in the μM (micromolar) range | – | –
O=c1c2ccccc2[se]n1-c1ccccc1 [Ebselen] | toxic in the μM (micromolar) range | – | –
μPx-8: heme-peptide with the cytochrome C peptide segment containing residue 14 to 21 (CAQCHTVE; cysteine pairing not given here; also: heme-peptide, heme attachment not placed; UniProt P00004 15-22, looked up, fragment) | – | inactivated | more active than μPx-11
